Target: T1, Human G288S SLACK (Homo sapiens, UniProt Q5JUK3, G269S)
T1 construct: host or cells: CHO-K1
T1 sequence (Q5JUK3 1-1235 isoform Q5JUK3-3 G288S): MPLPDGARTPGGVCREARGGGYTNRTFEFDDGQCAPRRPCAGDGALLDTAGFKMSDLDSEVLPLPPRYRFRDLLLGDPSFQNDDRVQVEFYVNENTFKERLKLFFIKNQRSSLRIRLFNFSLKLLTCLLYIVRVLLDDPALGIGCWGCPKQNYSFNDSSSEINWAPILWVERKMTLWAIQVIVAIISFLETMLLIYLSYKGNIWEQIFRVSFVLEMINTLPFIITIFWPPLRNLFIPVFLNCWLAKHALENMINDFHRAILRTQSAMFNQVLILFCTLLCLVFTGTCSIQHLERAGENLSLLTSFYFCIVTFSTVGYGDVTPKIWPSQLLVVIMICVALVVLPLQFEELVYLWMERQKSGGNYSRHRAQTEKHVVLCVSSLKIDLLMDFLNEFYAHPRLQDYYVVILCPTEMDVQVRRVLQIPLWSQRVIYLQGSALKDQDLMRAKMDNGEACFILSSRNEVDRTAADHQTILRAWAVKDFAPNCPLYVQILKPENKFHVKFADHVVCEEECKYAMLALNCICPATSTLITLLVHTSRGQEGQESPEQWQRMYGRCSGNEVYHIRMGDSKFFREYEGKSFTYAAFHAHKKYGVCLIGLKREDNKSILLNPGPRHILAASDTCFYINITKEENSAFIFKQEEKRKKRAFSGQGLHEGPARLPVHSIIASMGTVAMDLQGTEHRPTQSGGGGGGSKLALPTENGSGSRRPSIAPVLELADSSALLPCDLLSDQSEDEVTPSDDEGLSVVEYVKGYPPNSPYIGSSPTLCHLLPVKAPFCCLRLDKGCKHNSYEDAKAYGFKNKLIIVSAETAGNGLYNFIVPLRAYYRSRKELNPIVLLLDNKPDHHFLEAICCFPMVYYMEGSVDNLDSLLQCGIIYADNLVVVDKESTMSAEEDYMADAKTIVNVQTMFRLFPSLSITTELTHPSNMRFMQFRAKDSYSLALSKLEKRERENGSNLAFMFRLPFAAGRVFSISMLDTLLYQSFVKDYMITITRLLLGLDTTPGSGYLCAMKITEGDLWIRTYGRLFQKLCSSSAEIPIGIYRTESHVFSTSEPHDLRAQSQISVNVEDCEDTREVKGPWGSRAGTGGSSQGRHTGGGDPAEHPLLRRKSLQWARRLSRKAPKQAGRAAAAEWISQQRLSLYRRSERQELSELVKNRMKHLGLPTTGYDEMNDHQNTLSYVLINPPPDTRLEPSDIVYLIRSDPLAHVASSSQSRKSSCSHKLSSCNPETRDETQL
Experiment: Whole-cell APC in CHO-K1 cells stably expressing human G288S SLACK
Format: cell-based
Description: Finally, we chose to screen the same two compounds versus mouse SLACK and two clinically relevant GOF SLACK mutants in APC assays utilizing CHO-K1 cells stably expressing these targets (Table 7). Screening versus the mouse homolog was deemed important for evaluating the potential of the series to ultimately lead to a useful in vivo tool via further optimization.
Stably transfected monoclonal HEK293 cell lines expressing SLICK, Maxi-K α1/β3, Maxi-K α1/β4, CaV3.2, GIRK 1/2, KV2.1, KV7.2, NaV1.7, and TASK-1 were generated as previously described. Stably transfected monoclonal HEK293 cell lines expressing hERG were generated as previously described. CHO-K1 cells expressing human SLACK and disease-associated human SLACK mutations, G288S and A934T, were generated by transfecting a PiggyBac TRE mammalian expression vector (VectorBuilder, Chicago, IL, USA) containing KCNT1. FuGENE 6 (Promega, Madison, WI, USA) transfection reagent and protocol, together with Opti-MEM (Thermo Fisher Scientific, Waltham, MA, USA), were utilized according to the manufacturer’s instructions.
Automated patch clamp recording was performed with a SyncroPatch 768 PE system (Nanion, Munich, Germany) as previously described. Whole-cell recordings were performed at room temperature. Cells were harvested by first washing with PBS without Mg^2+ or Ca^2+ (Gibco, Billings, MT, USA) to remove cell culture medium, followed by dissociation with TryPLE (Gibco, Billings, MT, USA). Cells were then resuspended and diluted to 200,000 cells/mL in external solution. External solution contained 105 mM NaCl, 4 mM KCl, 1 mM MgCl2, 5 mM CaCl2, 10 mM HEPES, 40 mM N-Methyl-D-glucamine chloride, titrated to pH 7.4 with NaOH and osmolarity of 300 mOsm/kg; internal solution contained 70 mM NaCl, 70 mM KF, 10 mM KCl, 5 mM EGTA, 5mM HEPES, titrated to a pH 7.2 with KOH and osmolarity of 295 mOsm/kg.
The APC protocol was set as following: Cells were held at […] −80 mV for 100 ms, then a ramp protocol was performed from −100 mV to 80 mV at 0.4 mV/ms, hold the cell at −80 mV for another 100 ms, then steps were performed at −20 mV, 0 mV, +20 mV, +40 mV, and +60 mV for 100 ms of each step. Whole-cell currents were measured at 0 mV and normalized to current after external buffer addition.

`CN(c1ccc(C#N)cc1)c1ncc(NC(=O)C(C)(C)Oc2ccc(Cl)cc2)cn1` [Analog 66] was tested, and the “G288S SLACK inhibition, result in words” value (APC, CHO-K1 cells) was “only weakly active”, the IC50 (APC, CHO-K1 cells, Human G288S SLACK) was over 10 µM and the Imax (Human G288S SLACK, maximum inhibition at 30 µM standardized to VU0606170 (set at 100%)) was 40%.

In the case of `CC(C)(Oc1ccc(Cl)cc1)C(=O)Nc1cnc(Oc2c(F)cccc2F)nc1` [Analog 40], the “G288S SLACK inhibition, result in words” value (APC, CHO-K1 cells) is reported as “inactive”.

— publication PMC11643494, “Structure–Activity Relationship Studies in a Series of 2-Aryloxy-N-(pyrimidin-5-yl)acetamide Inhibitors of SLACK Potassium Channels” (Molecules, 2024)
